Active and inactive are the calls of the source. The calls are words filed in the database; no cut-off is given here. Positions of bridges follow the written chain, without caps; N, C: chain ends. Non-standard residues stand in square brackets, D forms with d. Residues, ends and D or L forms follow the SMILES beside them. Chains are numbered I, II in the order given. Orn = NCCC[C@H](N)C(=O)O
Experiments:
[1] = Binding affinity to 5'-ATGACTCAT-3' AP-1 dsDNA (unknown origin) by isothermal titration calorimetry
[2] = Binding affinity to 5'-ATGACGTCAT-3' ATF/CREB dsDNA (unknown origin) by isothermal titration calorimetry
[3] = Binding affinity to 5'-GCGAGTAGAGCTTTTTGCTCTACTCGC-3' dsDNA (unknown origin) by ethidium bromide displacement assay
[4] = Binding affinity to 5'-GCGAGTAGAGCTTTTTGCTCTACTCGC-3' dsDNA (unknown origin) by tryptophan fluorescence spectroscopic analysis
[5] = Binding affinity to 5'-GCGAGCACAGCTTTTTGCTGTGCTCGC-3' dsDNA (unknown origin) by ethidium bromide displacement assay
[6] = Binding affinity to 5'-GCGAGCACAGCTTTTTGCTGTGCTCGC-3' dsDNA (unknown origin) by tryptophan fluorescence spectroscopic analysis

Compound CC(=O)N[C@@H](CC(=O)O)C(=O)N1CCC[C@H]1C(=O)N[C@@H](C)C(=O)N[C@@H](C)C(=O)N[C@@H](CC(C)C)C(=O)N[C@@H](CCCCN)C(=O)N[C@@H](CCCNC(=N)N)C(=O)N[C@@H](C)C(=O)N[C@@H](CCCNC(=N)N)C(=O)N[C@@H](CC(N)=O)C(=O)N[C@H](C(=O)N[C@@H](CCC(=O)O)C(=O)N[C@@H](C)C(=O)N[C@@H](C)C(=O)N[C@@H](CCCNC(=N)N)C(=O)N[C@@H](CCCNC(=N)N)C(=O)N[C@@H](CO)C(=O)N[C@@H](CCCNC(=N)N)C(=O)N[C@@H](C)C(=O)N[C@@H](CCCNC(=N)N)C(=O)N[C@@H](CCCCN)C(=O)N[C@@H](CC(C)C)C(=O)N[C@@H](CCC(N)=O)C(=O)N[C@@H](CCCNC(=N)N)C(=O)N[C@@H](CC(C)C)C(=O)N[C@@H](CCCCN)C(=O)N[C@@H](CCC(N)=O)C(N)=O)[C@@H](C)O (Ac-DPAALKRARNTEAARRSRARKLQRLKQ-NH2) has a Kd [1] of 20 µM and a Kd [2] of 20 µM.
In the case of CC(C)C[C@@H]1NC(=O)[C@H](CC(N)=O)NC(=O)[C@H](Cc2ccccc2)NC(=O)[C@H](CCC(N)=O)NC(=O)[C@H](CCCCN)NC(=O)[C@@H](N)CCCNC(=O)[C@H](Cc2c[nH]c3ccccc23)NC(=O)[C@H](CCCNC(=N)N)NC(=O)[C@H](CC(C)C)NC(=O)[C@H](CC(N)=O)NC(=O)[C@H](Cc2ccccc2)NC(=O)[C@H](CCC(N)=O)NC(=O)[C@H](CCCCN)NC(=O)[C@@H](N)CCCNC(=O)[C@H](Cc2c[nH]c3ccccc23)NC(=O)[C@H](CCCNC(=N)N)NC1=O (I: H-[Orn]KQFNLRW / II: H-[Orn]KQFNLRW; amide I:1-II:C, I:C-II:1), the Kd [3] is reported as 2.1 µM, the Activity [4] is reported as “Active” and the Activity [5] is reported as “Active”. For the same compound, the Activity [6] was “Active”.

Source: ChEMBL document CHEMBL3774307, “Synthesis, Characterization, and DNA Binding Profile of a Macrocyclic β-Sheet Analogue of ARC Protein” (ACS Med Chem Lett, 2015)
